# How the values were obtained:
# [1] = molecular target: CYP450 (isoform not stated) (Homo sapiens, UniProt P04798+P05177+P05181+P08684+P10632+P10635+P11509+P11712+P13584+P20813+P20815+P20853+P24462+P24903+P33260+P33261+P51589+P78329+P98187+Q02928+Q08477+Q16678+Q16696+Q5TCH4+Q6VVX0+Q7Z449+Q8TAV3+Q96SQ9+Q9HB55); assay: in vitro; conditions: Liver
# [2] = molecular target: T1, Steroid 17-alpha-hydroxylase/17,20 lyase (Homo sapiens, UniProt P05093); type: ADME
# T1 sequence (P05093 whole entry): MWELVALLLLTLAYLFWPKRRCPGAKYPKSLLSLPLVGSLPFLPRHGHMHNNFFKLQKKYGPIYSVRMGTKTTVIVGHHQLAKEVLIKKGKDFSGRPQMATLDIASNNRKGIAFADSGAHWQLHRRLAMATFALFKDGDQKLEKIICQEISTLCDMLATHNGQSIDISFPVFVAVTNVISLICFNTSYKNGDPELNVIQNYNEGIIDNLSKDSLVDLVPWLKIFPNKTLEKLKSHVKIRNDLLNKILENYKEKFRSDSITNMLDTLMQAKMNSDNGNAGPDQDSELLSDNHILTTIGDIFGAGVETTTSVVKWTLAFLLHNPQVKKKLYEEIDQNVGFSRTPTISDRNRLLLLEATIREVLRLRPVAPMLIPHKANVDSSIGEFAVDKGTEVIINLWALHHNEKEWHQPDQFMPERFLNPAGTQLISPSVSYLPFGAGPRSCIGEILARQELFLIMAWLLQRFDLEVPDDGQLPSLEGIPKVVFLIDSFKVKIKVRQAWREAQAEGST
# Description: Inhibition of human testicular CYP17
# Cytochrome P450 2C19 = Cytochrome P450 2C19 (Homo sapiens, UniProt P33261)
# Sequence of Cytochrome P450 2C19 (P33261 whole entry): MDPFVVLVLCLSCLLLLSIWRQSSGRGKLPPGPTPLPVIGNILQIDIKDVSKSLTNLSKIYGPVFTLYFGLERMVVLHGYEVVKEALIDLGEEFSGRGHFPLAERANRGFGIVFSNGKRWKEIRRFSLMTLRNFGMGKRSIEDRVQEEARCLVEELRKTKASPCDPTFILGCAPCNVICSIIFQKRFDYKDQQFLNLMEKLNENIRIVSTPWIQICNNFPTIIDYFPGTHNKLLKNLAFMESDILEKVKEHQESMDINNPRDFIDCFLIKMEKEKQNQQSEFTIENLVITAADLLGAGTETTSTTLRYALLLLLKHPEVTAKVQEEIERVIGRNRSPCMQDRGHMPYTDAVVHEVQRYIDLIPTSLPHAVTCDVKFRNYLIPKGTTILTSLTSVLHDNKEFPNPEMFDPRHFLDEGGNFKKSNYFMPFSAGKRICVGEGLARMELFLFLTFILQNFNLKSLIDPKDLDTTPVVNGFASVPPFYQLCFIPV
# Description: Inhibition of CYP2C19 in human liver microsomes incubated in presence NADPH
# Cytochrome P450 1B1 = molecular target: T2, Cytochrome P450 1B1 (Homo sapiens, UniProt Q16678)
# T2 sequence (Q16678 whole entry): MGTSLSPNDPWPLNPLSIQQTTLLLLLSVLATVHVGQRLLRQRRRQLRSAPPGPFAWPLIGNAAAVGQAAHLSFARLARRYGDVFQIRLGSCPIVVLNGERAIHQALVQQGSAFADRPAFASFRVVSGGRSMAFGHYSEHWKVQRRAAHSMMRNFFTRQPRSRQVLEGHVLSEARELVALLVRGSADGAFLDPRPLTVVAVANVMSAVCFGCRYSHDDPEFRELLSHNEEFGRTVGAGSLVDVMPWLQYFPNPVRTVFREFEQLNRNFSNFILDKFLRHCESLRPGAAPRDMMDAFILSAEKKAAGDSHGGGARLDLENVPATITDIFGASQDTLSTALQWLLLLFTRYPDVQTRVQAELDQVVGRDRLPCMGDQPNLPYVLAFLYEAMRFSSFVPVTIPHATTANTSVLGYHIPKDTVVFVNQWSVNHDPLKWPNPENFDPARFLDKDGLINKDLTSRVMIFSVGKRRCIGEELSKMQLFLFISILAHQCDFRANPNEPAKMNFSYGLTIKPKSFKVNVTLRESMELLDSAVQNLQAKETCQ
# Description: Inhibition of recombinant human CYP1B1 using 7-ethyl-0-resorufin as substrate incubated for 30 mins in presence of NADPH
# Aromatase = molecular target: T3, Aromatase (Homo sapiens, UniProt P11511); type: cell-based, JEG-3
# T3 sequence (P11511 whole entry): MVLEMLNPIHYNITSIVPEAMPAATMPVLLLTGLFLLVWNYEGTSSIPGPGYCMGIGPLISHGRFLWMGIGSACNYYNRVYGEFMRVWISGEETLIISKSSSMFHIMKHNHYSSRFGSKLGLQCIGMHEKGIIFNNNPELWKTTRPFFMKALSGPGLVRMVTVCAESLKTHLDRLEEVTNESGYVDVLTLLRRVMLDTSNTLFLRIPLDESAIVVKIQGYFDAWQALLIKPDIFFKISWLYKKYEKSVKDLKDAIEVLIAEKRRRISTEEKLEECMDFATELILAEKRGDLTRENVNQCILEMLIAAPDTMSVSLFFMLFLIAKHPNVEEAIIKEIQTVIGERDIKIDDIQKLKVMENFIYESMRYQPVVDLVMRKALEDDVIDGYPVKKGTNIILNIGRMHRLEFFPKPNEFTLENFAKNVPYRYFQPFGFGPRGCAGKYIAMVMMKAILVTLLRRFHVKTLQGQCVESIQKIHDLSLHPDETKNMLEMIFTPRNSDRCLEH
structure (smiles),measurement,setting,value
Oc1cccc2c1CCC1C(c3ccncc3)C21 (stereo unspecified),IC50,[1],6.05 µM
c1ccc2c(c1)CCC1C(c3ccncc3)C21 (stereo unspecified),IC50,[2],39.5 µM
CCn1cc(C(c2ccc(Cl)cc2)n2ccnn2)c2cc(Br)ccc21 (stereo unspecified),IC50,Cytochrome P450 2C19,10 µM
COc1ccc(/C=C/c2c(CC=C(C)C)c(O)cc(O)c2CC=C(C)C)cc1,pIC50,Cytochrome P450 1B1,13.573
Oc1ccc2c(c1)CCC1C(c3ccncc3)C21 (stereo unspecified),IC50,[1],2810 µM
N#Cc1ccccc1-c1cccc(Cn2cncn2)c1,IC50,Aromatase,0.00701 µM
